13 compounds from patent US9981940B2, “Aryl sulfide derivatives and aryl sulfoxide derivatives as acaricides and insecticides” (BAYER CROPSCIENCE AKTIENGESELLSCHAFT, priority 2013, dated 2018) can be followed below.

One data set deals with Meloidogyne incognita. In words: Meloidogyne incognita test (MELGIN). The class given is in vivo. Conditions: application rate of 20 ppm; after 14 days, by formation of galls. The method, then:
Meloidogyne Incognita Test (MELGIN)
• Solvent: 125.0 parts by weight of acetone
To produce an appropriate active ingredient formulation, 1 part by weight of active ingredient is mixed with the specified amounts of solvent and the concentrate is diluted to the desired concentration with water.
Vessels are filled with sand, active ingredient solution, an egg/larvae suspension of the southern root-knot nematode (Meloidogyne incognita) and lettuce seeds. The lettuce seeds germinate and the plants develop. The galls develop on the roots
After 14 days, the nematicidal efficacy in % is determined by the formation of galls. 100% means that no galls have been found; 0% means that the number of galls on the treated plants corresponds to the untreated control.
With `Cc1cc(F)c(-n2nnn(CC(F)(F)F)c2=O)cc1[S+]([O-])CC(F)(F)F` (racemic) [Example 305], the nematicidal efficacy stood at 100%.

As to `Cc1cc(F)c(-n2nnn(CC(F)(F)C(F)(F)F)c2=O)cc1[S+]([O-])CC(F)(F)F` (racemic) [Example 446], the nematicidal efficacy turned out to be 100%.

`Cc1cc(F)c(-n2nc(-c3ccc(Cl)cc3F)n(C)c2=O)cc1[S+]([O-])CC(F)(F)F` (stereo not shown) [Example 39] showed a nematicidal efficacy of 90%.

As to `Cc1cc(F)c(-n2nc(-c3ccc(Cl)cc3F)n(C)c2=O)cc1SCC(F)(F)F` [Example 40], the nematicidal efficacy amounted to 100%.

`Cc1cc(F)c(-n2ncn(C3CC3)c2=O)cc1SCC(F)(F)F` [Example 61] came in with a nematicidal efficacy of 100%.

Consider `COc1nn(-c2ccc(Cl)c([S+]([O-])CC(F)(F)F)c2)c(=O)n1C` (stereo not shown) [Example 99], for which the nematicidal efficacy stood at 90%.

On to `Cc1cc(F)c(-n2nc(OCC(F)(F)F)n(C3CC3)c2=O)cc1[S+]([O-])CC(F)(F)F` (stereo not shown) [Example 102], for which the nematicidal efficacy is 100%.

Turning to `Cc1cc(F)c(-n2nc(OCC(F)(F)F)n(C3CC3)c2=O)cc1SCC(F)(F)F` [Example 103], the nematicidal efficacy turned out to be 100%.

`COc1nn(-c2cc([S+]([O-])CC(F)(F)F)c(C)cc2F)c(=O)n1C1CC1` (stereo not shown) [Example 104] displayed a nematicidal efficacy of 90%.

Regarding `COc1nn(-c2cc(SCC(F)(F)F)c(C)cc2F)c(=O)n1C1CC1` [Example 105], the nematicidal efficacy turned out to be 90%.

As to `COc1nn(-c2cc([S+]([O-])CC(F)(F)F)c(Cl)cc2F)c(=O)n1C1CC1` (stereo not shown) [Example 115], the nematicidal efficacy came out at 90%.

For `COc1nn(-c2cc(SCC(F)(F)F)c(C)cc2Cl)c(=O)n1C1CC1` [Example 116], the nematicidal efficacy is on record as 100%.

Compound `COc1nn(-c2cc([S+]([O-])CC(F)(F)F)c(C)cc2Cl)c(=O)n1C1CC1` (stereo not shown) [Example 117] returned a nematicidal efficacy of 100%.

The test system of the next data set is Boophilus microplus. In words: Boophilus microplus injection test (BOOPMI Inj). It is filed as in vivo. Conditions: application rate of 20 μg/animal, assessed after 7 days by laying of fertile eggs. Put shortly:
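Engorged adult female ticks (5 per test) injected in the abdomen with 1 μl of compound solution in DMSO, then held in a climate-controlled room. Efficacy scored after 7 days from fertile egg laying, with 100% meaning no fertile eggs and 0% all eggs fertile.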
For `Cc1cc(F)c(-n2nnn(CC(F)(F)F)c2=O)cc1[S+]([O-])CC(F)(F)F` (racemic) [Example 305], the efficacy was determined as 100%.

As for `COc1nn(-c2ccc(Cl)c([S+]([O-])CC(F)(F)F)c2)c(=O)n1C` (stereo not shown) [Example 99], the efficacy came out at 100%.

For `Cc1cc(F)c(-n2nc(OCC(F)(F)F)n(C3CC3)c2=O)cc1[S+]([O-])CC(F)(F)F` (stereo not shown) [Example 102], the efficacy came to 100%.

For the compound `Cc1cc(F)c(-n2nc(OCC(F)(F)F)n(C3CC3)c2=O)cc1SCC(F)(F)F` [Example 103], the efficacy turned out to be 100%.

Turning to `COc1nn(-c2cc([S+]([O-])CC(F)(F)F)c(C)cc2F)c(=O)n1C1CC1` (stereo not shown) [Example 104], the efficacy is 100%.

The compound `COc1nn(-c2cc(SCC(F)(F)F)c(C)cc2F)c(=O)n1C1CC1` [Example 105] yielded an efficacy of 100%.

The compound `COc1nn(-c2cc([S+]([O-])CC(F)(F)F)c(Cl)cc2F)c(=O)n1C1CC1` (stereo not shown) [Example 115] registered an efficacy of 100%.

Compound `COc1nn(-c2cc(SCC(F)(F)F)c(C)cc2Cl)c(=O)n1C1CC1` [Example 116] had an efficacy of 100%.

The compound `COc1nn(-c2cc([S+]([O-])CC(F)(F)F)c(C)cc2Cl)c(=O)n1C1CC1` (stereo not shown) [Example 117] returned an efficacy of 100%.

A further data set concerns Tetranychus urticae. In words: Tetranychus urticae spray test, OP-resistant (TETRUR). To be noted: application rate of 500 g/ha; after 6 days. It is filed as in vivo. Put shortly: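 Bean leaf discs infested with all stages of an OP-resistant Tetranychus urticae strain sprayed with compound in acetone/DMF with alkylaryl polyglycol ether emulsifier, diluted in water. Efficacy in % scored after 6 days; 100% means all mites killed.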
With `Cc1cc(F)c(-n2nnn(CC(F)(F)F)c2=O)cc1[S+]([O-])CC(F)(F)F` (racemic) [Example 305], the efficacy is 100%.

For the compound `Cc1cc(F)c(-n2nnn(CC(F)(F)C(F)(F)F)c2=O)cc1[S+]([O-])CC(F)(F)F` (racemic) [Example 446], the efficacy stood at 90%.

`Cc1cc(F)c(-n2nc(-c3ccc(Cl)cc3F)n(C)c2=O)cc1[S+]([O-])CC(F)(F)F` (stereo not shown) [Example 39] had an efficacy of 90%.

In turn, `Cc1cc(F)c(-n2nc(-c3ccc(Cl)cc3F)n(C)c2=O)cc1SCC(F)(F)F` [Example 40] returned an efficacy of 100%.

For the compound `Cc1cc(F)c(-n2ncn(C3CC3)c2=O)cc1SCC(F)(F)F` [Example 61], the efficacy was found to be 100%.

`COc1nn(-c2ccc(Cl)c([S+]([O-])CC(F)(F)F)c2)c(=O)n1C` (stereo not shown) [Example 99] had an efficacy of 90%.

`Cc1cc(F)c(-n2nc(OCC(F)(F)F)n(C3CC3)c2=O)cc1[S+]([O-])CC(F)(F)F` (stereo not shown) [Example 102] had an efficacy of 100%.

Regarding `Cc1cc(F)c(-n2nc(OCC(F)(F)F)n(C3CC3)c2=O)cc1SCC(F)(F)F` [Example 103], the efficacy came out at 100%.

The compound `COc1nn(-c2cc([S+]([O-])CC(F)(F)F)c(C)cc2F)c(=O)n1C1CC1` (stereo not shown) [Example 104] gave an efficacy of 100%.

Turning to `COc1nn(-c2cc(SCC(F)(F)F)c(C)cc2F)c(=O)n1C1CC1` [Example 105], the efficacy turned out to be 100%.

In turn, `COc1nn(-c2cc([S+]([O-])CC(F)(F)F)c(Cl)cc2F)c(=O)n1C1CC1` (stereo not shown) [Example 115] yielded an efficacy of 100%.

`COc1nn(-c2cc(SCC(F)(F)F)c(C)cc2Cl)c(=O)n1C1CC1` [Example 116]: the efficacy was 90%.

As to `COc1nn(-c2cc([S+]([O-])CC(F)(F)F)c(C)cc2Cl)c(=O)n1C1CC1` (stereo not shown) [Example 117], the efficacy is 90%.

Tested on in another data set: not listed separately
In words: log P by HPLC (OECD Guideline 117), method [b] neutral range. It is filed as physicochemical. Conditions: HPLC, method [b] neutral range. On the procedure: (§1) The log P values were determined analogously to OECD Guideline 117 (EC Directive 92/69/EEC) by HPLC (high-performance liquid chromatography) using reversed-phase columns (C 18), by the following methods:
[b] The LC-MS determination in the neutral range is effected at pH 7.8 with 0.001 molar aqueous ammonium hydrogencarbonate solution and acetonitrile as eluents; linear gradient from 10% acetonitrile to 95% acetonitrile.
As for `Cc1cc(F)c(-n2nnn(CC(F)(F)F)c2=O)cc1[S+]([O-])CC(F)(F)F` (racemic) [Example 305], the “logP[b]” value stood at 2.51.

`Cc1cc(F)c(-n2nnn(CC(F)(F)C(F)(F)F)c2=O)cc1[S+]([O-])CC(F)(F)F` (racemic) [Example 446]: the “logP[b]” value is recorded as 3.01.

As to `Cc1cc(F)c(-n2nc(-c3ccc(Cl)cc3F)n(C)c2=O)cc1[S+]([O-])CC(F)(F)F` (stereo not shown) [Example 39], the “logP[b]” value was 2.91.

With `Cc1cc(F)c(-n2nc(-c3ccc(Cl)cc3F)n(C)c2=O)cc1SCC(F)(F)F` [Example 40], the “logP[b]” value is 3.96.

For `Cc1cc(F)c(-n2ncn(C3CC3)c2=O)cc1SCC(F)(F)F` [Example 61], the “logP[b]” value was 2.59.

For `COc1nn(-c2ccc(Cl)c([S+]([O-])CC(F)(F)F)c2)c(=O)n1C` (stereo not shown) [Example 99], the “logP[b]” value was 2.52.

As for `Cc1cc(F)c(-n2nc(OCC(F)(F)F)n(C3CC3)c2=O)cc1[S+]([O-])CC(F)(F)F` (stereo not shown) [Example 102], the “logP[b]” value came out at 2.77.

In the case of `Cc1cc(F)c(-n2nc(OCC(F)(F)F)n(C3CC3)c2=O)cc1SCC(F)(F)F` [Example 103], the “logP[b]” value was determined as 3.72.

For the compound `COc1nn(-c2cc([S+]([O-])CC(F)(F)F)c(C)cc2F)c(=O)n1C1CC1` (stereo not shown) [Example 104], the “logP[b]” value was 2.08.

For `COc1nn(-c2cc(SCC(F)(F)F)c(C)cc2F)c(=O)n1C1CC1` [Example 105], the “logP[b]” value came out at 3.11.

Consider `COc1nn(-c2cc([S+]([O-])CC(F)(F)F)c(Cl)cc2F)c(=O)n1C1CC1` (stereo not shown) [Example 115], for which the “logP[b]” value was found to be 2.43.

As to `COc1nn(-c2cc(SCC(F)(F)F)c(C)cc2Cl)c(=O)n1C1CC1` [Example 116], the “logP[b]” value stood at 3.30.

Turning to `COc1nn(-c2cc([S+]([O-])CC(F)(F)F)c(C)cc2Cl)c(=O)n1C1CC1` (stereo not shown) [Example 117], the “logP[b]” value stood at 2.30.

Tested on in the next data set: not listed separately
In words: log P by HPLC (OECD Guideline 117), method [a] acidic range. It is filed as physicochemical. To be noted: HPLC, method [a] acidic range. The method, then: as §1
[a] The LC-MS determination in the acidic range is effected at pH 2.7 with 0.1% aqueous formic acid and acetonitrile (contains 0.1% formic acid) as eluents; linear gradient from 10% acetonitrile to 95% acetonitrile.
Turning to `Cc1cc(F)c(-n2nnn(CC(F)(F)F)c2=O)cc1[S+]([O-])CC(F)(F)F` (racemic) [Example 305], the “logP[a]” value is on record as 2.57.

Take `Cc1cc(F)c(-n2nnn(CC(F)(F)C(F)(F)F)c2=O)cc1[S+]([O-])CC(F)(F)F` (racemic) [Example 446]: the “logP[a]” value is 3.05.

As to `Cc1cc(F)c(-n2nc(-c3ccc(Cl)cc3F)n(C)c2=O)cc1[S+]([O-])CC(F)(F)F` (stereo not shown) [Example 39], the “logP[a]” value was determined as 2.97.

For the compound `Cc1cc(F)c(-n2nc(-c3ccc(Cl)cc3F)n(C)c2=O)cc1SCC(F)(F)F` [Example 40], the “logP[a]” value stood at 4.06.

For `Cc1cc(F)c(-n2ncn(C3CC3)c2=O)cc1SCC(F)(F)F` [Example 61], the “logP[a]” value is 2.62.

Regarding `COc1nn(-c2ccc(Cl)c([S+]([O-])CC(F)(F)F)c2)c(=O)n1C` (stereo not shown) [Example 99], the “logP[a]” value came to 2.54.

As to `Cc1cc(F)c(-n2nc(OCC(F)(F)F)n(C3CC3)c2=O)cc1[S+]([O-])CC(F)(F)F` (stereo not shown) [Example 102], the “logP[a]” value came out at 2.83.

As for `Cc1cc(F)c(-n2nc(OCC(F)(F)F)n(C3CC3)c2=O)cc1SCC(F)(F)F` [Example 103], the “logP[a]” value worked out at 3.80.

As to `COc1nn(-c2cc([S+]([O-])CC(F)(F)F)c(C)cc2F)c(=O)n1C1CC1` (stereo not shown) [Example 104], the “logP[a]” value was found to be 2.13.

For the compound `COc1nn(-c2cc(SCC(F)(F)F)c(C)cc2F)c(=O)n1C1CC1` [Example 105], the “logP[a]” value is given as 3.16.

As to `COc1nn(-c2cc([S+]([O-])CC(F)(F)F)c(Cl)cc2F)c(=O)n1C1CC1` (stereo not shown) [Example 115], the “logP[a]” value is reported as 2.45.

For `COc1nn(-c2cc(SCC(F)(F)F)c(C)cc2Cl)c(=O)n1C1CC1` [Example 116], the “logP[a]” value is 3.20.

In the case of `COc1nn(-c2cc([S+]([O-])CC(F)(F)F)c(C)cc2Cl)c(=O)n1C1CC1` (stereo not shown) [Example 117], the “logP[a]” value was found to be 2.28.
